Measurements as given in EP1673354B1, “ARYLINDENOPYRIDINES AND ARYLINDENOPYRIMIDINES AND THEIR USE AS ADENOSINE A2A RECEPTOR ANTAGONISTS” (Ortho-McNeil Pharmaceutical, Inc., priority 2003, dated 2005).
Like-named read-outs stand apart in the source and are kept apart here.

How the values were obtained:
[1] = target: T1, human A2a adenosine receptor (Homo sapiens, UniProt P29274); assay: Ligand binding assay for adenosine A2a receptor ([3H]CGS21680, HEK293 plasma membrane)
T1 construct: purchased PerkinElmer RB-HA2a; host or cells: HEK293 cell plasma membrane
T1 sequence (P29274 whole entry): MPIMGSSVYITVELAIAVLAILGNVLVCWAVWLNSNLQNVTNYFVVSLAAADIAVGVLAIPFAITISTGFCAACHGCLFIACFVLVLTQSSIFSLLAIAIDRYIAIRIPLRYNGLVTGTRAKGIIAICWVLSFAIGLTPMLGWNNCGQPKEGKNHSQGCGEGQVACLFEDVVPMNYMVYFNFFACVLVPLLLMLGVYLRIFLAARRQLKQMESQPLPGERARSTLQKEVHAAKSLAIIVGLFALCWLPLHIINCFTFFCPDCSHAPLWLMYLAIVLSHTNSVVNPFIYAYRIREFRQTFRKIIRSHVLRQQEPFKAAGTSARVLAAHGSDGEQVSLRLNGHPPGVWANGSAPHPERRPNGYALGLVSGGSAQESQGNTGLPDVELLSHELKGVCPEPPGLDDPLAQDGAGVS
Protocol: Ligand Binding Assay for Adenosine A2a Receptor
Ligand binding assay of adenosine A2a receptor was performed using plasma membrane of HEK293 cells containing human A2a adenosine receptor (PerkinElmer, RB-HA2a) and radioligand [^3H]CGS21680 (PerkinElmer, NET1021). Assay was set up in 96-well polypropylene plate in total volume of 200 µl by sequentially adding 20 µL1:20 diluted membrane, 130 µLassay buffer (50 mM Tris·HCl, pH7.4 10 mM MgCl2, 1 mM EDTA) containing [^3H] […] Nonspecific binding was determined by […] NECA. Reaction was carried out at room temperature for 2 hours before filtering through 96-well GF/C filter plate pre-soaked in 50 mM Tris·HCl, pH7.4 containing 0.3% polyethylenimine. Plates were then washed 5 times with cold 50 mM Tris·HCl, pH7.4, dried and sealed at the bottom. Microscintillation fluid 30 µl was added to each well and the top sealed. Plates were counted on Packard Topcount for [^3H]. Data was analyzed in Microsoft Excel and GraphPad Prism programs.

[2] = target: T2, human adenosine A2a receptors (Homo sapiens, UniProt P29274); assay: Adenosine A2a receptor functional assay, antagonist mode (cAMP-inducible beta-galactosidase reporter, 50 nM NECA); assay type: cell-based; settings: CHO-K1 cells, read-out: Ki (nM) A2a antagonist function
T2 construct: expressed in transfected cells; host or cells: CHO-K1 cells with cAMP-inducible beta-galactosidase reporter gene
T2 sequence (P29274 whole entry): as above
Protocol: Adenosine A2a Receptor Functional Assay
CHO-K1 cells overexpressing human adenosine A2a receptors and containing cAMP-inducible beta-galactosidase reporter gene were seeded at 40-50K/well into 96-well tissue culture plates and cultured for two days. On assay day, cells were washed once with 200 µL assay medium (F-12 nutrient mixture/0.1 % BSA). For agonist assay, adenosine A2a receptor agonist NECA was subsequently added and cell incubated at 37°C, 5% CO2 for 5 hrs before stopping reaction. In the case of antagonist assay, cells were incubated with antagonists for 5 minutes at R.T. followed by addition of 50 nM NECA. Cells were then incubated at 37°C, 5% CO2 for 5 hrs before stopping experiments by washing cells with PBS twice. 50 µL 1X lysis buffer (Promega, 5X stock solution, needs to be diluted to 1X before use) was added to each well and plates frozen at -20°C. For β-galactosidase enzyme colorimetric assay, plates were thawed out at room temperature and 50 µL 2X assay buffer (Promega) added to each well. Color was allowed to develop at 37°C for 1 h or until reasonable signal appeared. Reaction was then stopped with 150 µL 1 M sodium carbonate. […] Data was analyzed in Microsoft Excel and GraphPad Prism programs.

Adenosine A1 receptor = target: T3, Adenosine A1 receptor (Homo sapiens, UniProt P30542); assay: A1 antagonist function (no method described); assay type: cell-based
T3 sequence (P30542 1-326): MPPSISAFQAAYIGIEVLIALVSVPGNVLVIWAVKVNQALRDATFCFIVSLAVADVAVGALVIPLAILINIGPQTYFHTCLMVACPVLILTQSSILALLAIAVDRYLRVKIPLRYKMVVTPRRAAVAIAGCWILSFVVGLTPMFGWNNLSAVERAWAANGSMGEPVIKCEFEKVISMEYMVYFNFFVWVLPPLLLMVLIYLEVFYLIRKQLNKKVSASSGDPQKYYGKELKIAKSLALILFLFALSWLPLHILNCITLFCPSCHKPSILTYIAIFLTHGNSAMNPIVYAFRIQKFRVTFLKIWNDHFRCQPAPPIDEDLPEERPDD

[3] = radioligand [3H]CGS21680, HEK293 membranes, room temperature 2 hours; read-out: Ki (nM) A2a binding

Ki [1, 3] | Ki [2] | Ki (Adenosine A1 receptor) | Compound | Ki ([1]; read-out: Ki (nM) A2a binding; radioligand [3H]CGS21680, HEK293 membranes, room temperature 2 hours)
44.6 nM | 234 nM | 53 nM | COc1ccc(-c2nc(N)nc3c2Cc2ccccc2-3)cc1 [Compound 1] | –
2.03 nM | 6.87 nM | 5.32 nM | COc1ccc(-c2nc(N)nc3c2C(=O)c2ccccc2-3)cc1 [Compound 2] | –
0.885 nM | 2.63 nM | 15.6 nM | Nc1nc(-c2ccco2)c2c(n1)-c1ccccc1C2 [Compound 4] | –
5.36 nM | 9.64 nM | 27.1 nM | Nc1nc(-c2cccnc2)c2c(n1)-c1ccccc1C2=O [Compound 5] | –
3.9 nM | 4.56 nM | 16.4 nM | Nc1nc(-c2ccncc2)c2c(n1)-c1ccccc1C2=O [Compound 6] | –
– | 0.49 nM | 6.89 nM | Nc1nc(-c2nccs2)c2c(n1)-c1ccccc1C2=O [Compound 7] | –
58.4 nM | 5.5 nM | 11.6 nM | Nc1nc(-c2ccc(Cl)cc2)c2c(n1)-c1ccccc1C2=O [Compound 8] | –
20.8 nM | 4.85 nM | 7.69 nM | Nc1nc(-c2cccc([N+](=O)[O-])c2)c2c(n1)-c1ccccc1C2=O [Compound 9] | –
8.85 nM | 1.63 nM | 2.47 nM | COc1cccc(-c2nc(N)nc3c2C(=O)c2ccccc2-3)c1 [Compound 11] | –
33.5 nM | 32.5 nM | 172 nM | COc1ccccc1-c1nc(N)nc2c1C(=O)c1ccccc1-2 [Compound 12] | –
5.16 nM | 35.6 nM | 10.3 nM | Nc1nc(-c2cccc(O)c2)c2c(n1)-c1ccccc1C2=O [Compound 13] | –
3.23 nM | 0.258 nM | 3.46 nM | Nc1nc(-c2ccsc2)c2c(n1)-c1ccccc1C2=O [Compound 15] | –
1.75 nM | 0.169 nM | 5.22 nM | Nc1nc(-c2ccco2)c2c(n1)-c1ccc(Br)cc1C2=O [Compound 16] | –
6.3 nM | 67.1 nM | 111 nM | Nc1nc(-c2ccco2)c2c(n1)-c1cccc(O)c1C2=O [Compound 17] | –
318 nM | > 3000 nM | 189 nM | CSc1nc(N)nc2c1C(=O)c1c(N)cccc1-2 [Compound 18] | –
111 nM | 20.9 nM | 21.6 nM | CN(C)C=Nc1nc(-c2cccc(F)c2)c2c(n1)-c1ccccc1C2=O [Compound 19] | –
0.376 nM | 0.053 nM | 3.51 nM | Nc1nc(-c2ccco2)c2c(n1)-c1c(N)cccc1C2=O [Compound 21] | –
14.2 nM | 0.055 nM | 2.75 nM | Nc1nc(-c2ccco2)c2c(n1)-c1ccc(C(F)(F)F)cc1C2=O [Compound 22] | –
13.6 nM | 0.55 nM | 1.47 nM | Nc1nc(-c2ccco2)c2c(n1)-c1cc(C(F)(F)F)ccc1C2=O [Compound 23] | –
30.3 nM | > 3000 nM | 5.99 nM | CNc1nc(-c2ccccc2)c2c(n1)-c1ccccc1C2=O [Compound 24] | –
173 nM | 5.69 nM | 17.4 nM | Nc1nc(-c2ccco2)c2c(n1)-c1cc(Cl)c(Cl)cc1C2=O [Compound 25] | –
34.6 nM | 0.88 nM | 3.13 nM | Nc1nc(-c2ccco2)c2c(n1)-c1c(Cl)ccc(Cl)c1C2=O [Compound 26] | –

Ki [1, 3] | Ki [2] | Ki (Adenosine A1 receptor) | Compound | Ki ([1]; read-out: Ki (nM) A2a binding; radioligand [3H]CGS21680, HEK293 membranes, room temperature 2 hours)
147 nM | 68.3 nM | > 1000 nM | CCN(CC)CCNc1nc(-c2ccccc2)c2c(n1)-c1ccccc1C2=O [Compound 27] | –
48.9 nM | 3.53 nM | 5.86 nM | Nc1nc(-c2ccc(F)c(F)c2)c2c(n1)-c1ccccc1C2=O [Compound 28] | –
20.9 nM | 1.42 nM | 4.27 nM | Nc1nc(-c2cc(F)cc(F)c2)c2c(n1)-c1ccccc1C2=O [Compound 29] | –
31.5 nM | 10.2 nM | 4.05 nM | COc1ccc(-c2nc(N)nc3c2C(=O)c2ccccc2-3)cn1 [Compound 30] | –
0.175 nM | 0.34 nM | 0.021 nM | C[C@H](O)[C@@H](O)c1cccc2c1-c1nc(N)nc(-c3ccccc3)c1C2=O [Compound 33] | –
560 nM | – | – | CCCn1cc(-c2nc(N)nc3c2C(=O)c2ccccc2-3)ccc1=O [Compound 34] | –
3.49 nM | 0.265 nM | 7.09 nM | Nc1nc(-c2ccco2)c2c(n1)-c1cc(Br)ccc1C2=O [Compound 35] | –
4.37 nM | 0.052 nM | 2.52 nM | Nc1nc(-c2ccco2)c2c(n1)-c1c(F)cccc1C2=O [Compound 36] | –
2.86 nM | 0.143 nM | 3.07 nM | COc1cccc2c1C(=O)c1c(-c3ccco3)nc(N)nc1-2 [Compound 37] | –
2.34 nM | 0.956 nM | 9.44 nM | Nc1nc(-c2ccc(F)cc2)c2c(n1)-c1ccccc1C2=O [Compound 38] | –
4.92 nM | 0.926 nM | 2.31 nM | Nc1nc(-c2cccc(F)c2)c2c(n1)-c1ccccc1C2=O [Compound 39] | –
88 nM | 575 nM | > 3000 nM | CSc1nc(N)nc2c1C(=O)c1ccccc1-2 [Compound 41] | –
39.9 nM | 3.68 nM | 2.34 nM | Nc1nc(Nc2ccccc2)c2c(n1)-c1ccccc1C2=O [Compound 43] | –
3.93 nM | 0.208 nM | 7.4 nM | Nc1nc(-c2ccoc2)c2c(n1)-c1ccccc1C2=O [Compound 44] | –
4.01 nM | 0.005 nM | 0.016 nM | Cc1ccc(-c2nc(N)nc3c2C(=O)c2ccccc2-3)o1 [Compound 45, 2-amino-4-(5-methyl-furan-2-yl)-indeno[1,2-d]pyrimidin-5-one] | –
34.3 nM | – | – | CC(C)(C)OC(=O)NC1CCN(Cc2cccc3c2C(=O)c2c(-c4ccccc4)nc(N)nc2-3)CC1 [Compound 60] | –
29.8 nM | – | – | CCN(Cc1ccncc1)Cc1cccc2c1C(=O)c1c(-c3ccccc3)nc(N)nc1-2 [Compound 61] | –
58.4 nM | – | – | CN(Cc1ccco1)Cc1cccc2c1C(=O)c1c(-c3ccccc3)nc(N)nc1-2 [Compound 62] | –
0.59 nM | – | 0.18 nM | N#Cc1c(N)nc(-c2ccco2)c2c1-c1ccccc1C2=O [Compound 63, 9H-indeno[2,1-c]pyridine-4-carbonitrile, 3-amino-1-furan-2-yl-9-oxo-] | –
6.25 nM | 0.68 nM | – | CN(C)CCN(C)C(=O)c1c(N)nc(-c2ccco2)c2c1-c1ccccc1C2=O [Compound 77, 9H-indeno[2,1-c]pyridine-4-carboxylic acid, 3-amino-1-furan-2-yl-9-oxo-, (2-dimethylamino-ethyl)-methyl-amide] | –
17.6 nM | 1.58 nM | – | CC(CN(C)C)NC(=O)c1c(N)nc(-c2ccco2)c2c1-c1ccccc1C2=O (centres unmarked) [Compound 78, 9H-indeno[2,1-c]pyridine-4-carboxylic acid, 3-aminol-furan-2-yl-9-oxo-, (2-dimethylamino-1-methyl-ethyl)-amide] | –
508 nM | – | – | CCc1nc(N)c(C#N)c2c1C(=O)c1ccccc1-2 [Compound 85] | –

Compound | Ki [1, 3] | Ki [2] | Ki (Adenosine A1 receptor) | Ki ([1]; read-out: Ki (nM) A2a binding; radioligand [3H]CGS21680, HEK293 membranes, room temperature 2 hours)
Nc1nc(-c2ccccc2)c2c(n1)-c1ccccc1C2=O [Compound 10, 2-amino-4-phenyl-indeno[1,2-d]pyrimidin-5-one] | – | – | 1.2 nM | –
C[C@H](O)[C@@H](O)c1cccc2c1C(=O)c1c(-c3ccccc3)nc(N)nc1-2 [Compound 32] | – | 0.634 nM | 9.89 nM | 3.55 nM
